Key:
EP2 [1] = target: T1, EP2 (Homo sapiens, UniProt P43116); test: EP2 flipr functional assay; assay type: cell-based
Text: (§1) U.S. patent application Ser. No. 11/553,143, filed on Oct. 26, 2006, incorporated by reference herein, describes the methods used to obtain the in vitro data in the table below.

EP2 [2] = target: T1, EP2; test: EP2 cAMP assay; assay type: cell-based
Text: as §1

EP2 [3] = target: T1, EP2; test: EP2 binding (Ki)
Text: as §1

EP4 = EP4 (Homo sapiens, UniProt P35408); test: EP4 binding (Ki)
Text: as §1

hEP3A = target: T2, hEP3A (Homo sapiens, UniProt P43115); test: Other receptors functional assay, hEP3A; assay type: cell-based
T2 sequence (P43115 1-390): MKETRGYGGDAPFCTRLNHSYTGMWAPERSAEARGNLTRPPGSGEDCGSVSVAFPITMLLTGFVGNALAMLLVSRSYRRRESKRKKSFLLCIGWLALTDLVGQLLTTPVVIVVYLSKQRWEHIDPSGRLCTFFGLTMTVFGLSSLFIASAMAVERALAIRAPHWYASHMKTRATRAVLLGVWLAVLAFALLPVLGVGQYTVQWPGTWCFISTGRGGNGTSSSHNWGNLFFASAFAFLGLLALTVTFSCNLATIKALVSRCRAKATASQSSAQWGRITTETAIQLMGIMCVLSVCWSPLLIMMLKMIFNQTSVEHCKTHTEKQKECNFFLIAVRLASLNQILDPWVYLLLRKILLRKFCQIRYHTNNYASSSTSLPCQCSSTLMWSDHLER
Text: as §1

T1 sequence (P43116 whole entry): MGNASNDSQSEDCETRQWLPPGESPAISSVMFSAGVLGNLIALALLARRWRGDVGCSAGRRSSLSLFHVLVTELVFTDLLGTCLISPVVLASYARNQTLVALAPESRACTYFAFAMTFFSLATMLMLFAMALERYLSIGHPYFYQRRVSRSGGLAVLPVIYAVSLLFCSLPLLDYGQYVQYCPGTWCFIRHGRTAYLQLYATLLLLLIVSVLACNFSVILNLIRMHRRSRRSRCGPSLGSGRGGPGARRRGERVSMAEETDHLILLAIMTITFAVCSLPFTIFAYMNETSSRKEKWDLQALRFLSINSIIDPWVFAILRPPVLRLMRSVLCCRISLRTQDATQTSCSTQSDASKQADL
Chain of EP4 (P35408 whole entry): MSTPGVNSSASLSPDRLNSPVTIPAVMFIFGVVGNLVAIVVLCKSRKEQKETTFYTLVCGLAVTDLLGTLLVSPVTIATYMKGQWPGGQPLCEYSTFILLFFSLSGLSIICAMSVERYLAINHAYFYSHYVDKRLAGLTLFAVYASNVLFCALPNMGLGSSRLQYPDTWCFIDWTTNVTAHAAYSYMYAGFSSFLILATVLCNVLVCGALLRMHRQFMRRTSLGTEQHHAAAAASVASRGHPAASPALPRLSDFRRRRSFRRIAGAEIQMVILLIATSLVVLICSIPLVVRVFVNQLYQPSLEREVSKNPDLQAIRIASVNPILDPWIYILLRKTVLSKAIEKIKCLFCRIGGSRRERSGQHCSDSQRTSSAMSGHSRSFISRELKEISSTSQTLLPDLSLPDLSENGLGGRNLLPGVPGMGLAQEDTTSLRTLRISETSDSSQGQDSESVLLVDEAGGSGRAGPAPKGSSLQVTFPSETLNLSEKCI

## CCCCC[C@H](O)c1ccc(N2C(=O)CCN2CCCc2ccc(C(=O)O)s2)cc1 (stereo in doubt) [5-(3-(2-(4-(1-hydroxyhexyl)phenyl)-3-oxopyrazolidin-1-yl)propyl)thiophene-2-carboxylic Acid]
EP2 [1]
  EC50: 79 nM
EP2 [2]
  EC50: 1.8 nM
EP2 [3]
  Ki: 251 nM
EP4
  Ki: > 10000 nM
hEP3A
  EC50: 5070 nM

— patent US7576112B2, “Therapeutic N-aryl or N-heteroaryl pyrazolidine and pyrazolidinone derivatives” (Allergan, Inc., priority 2006, dated 2009)
